How the values were obtained:
Conditions in all cases: 72 h
Caco-2 [1] = experiment: cell viability relative to DMSO; higher = less toxic
Calu-3 [2] = experiment: as above
HepG2 [3] = experiment: as above
U2OS [4] = experiment: as above
Vero E6 [5] = experiment: as above
Caco-2 [6] = experiment: relative viability EC50 (midpoint between 100% and the lowest measured viability); higher = less toxic
Calu-3 [7] = experiment: as above
HepG2 [8] = experiment: as above
U2OS [9] = experiment: as above
Vero E6 [10] = experiment: as above
Caco-2 [11] = experiment: drug sensitivity score (DSS) for viability; higher = more toxic; extreme values may be limits of the assay
Calu-3 [12] = experiment: as above
HepG2 [13] = experiment: as above
U2OS [14] = experiment: as above
Vero E6 [15] = experiment: as above

SMILES	cell viability (Caco-2 [1]; 1 nM) [%]	cell viability (Caco-2 [1]; 10 nM) [%]	cell viability (Caco-2 [1]; 100 nM) [%]	cell viability (Caco-2 [1]; 1000 nM) [%]	cell viability (Caco-2 [1]; 10000 nM) [%]	cell viability (Calu-3 [2]; 1 nM) [%]	cell viability (Calu-3 [2]; 10 nM) [%]	cell viability (Calu-3 [2]; 100 nM) [%]	cell viability (Calu-3 [2]; 1000 nM) [%]	cell viability (Calu-3 [2]; 10000 nM) [%]	cell viability (HepG2 [3]; 1 nM) [%]	cell viability (HepG2 [3]; 10 nM) [%]	cell viability (HepG2 [3]; 100 nM) [%]	cell viability (HepG2 [3]; 1000 nM) [%]	cell viability (HepG2 [3]; 10000 nM) [%]	cell viability (U2OS [4]; 1 nM) [%]	cell viability (U2OS [4]; 10 nM) [%]	cell viability (U2OS [4]; 100 nM) [%]	cell viability (U2OS [4]; 1000 nM) [%]	cell viability (U2OS [4]; 10000 nM) [%]	cell viability (Vero E6 [5]; 1 nM) [%]	cell viability (Vero E6 [5]; 10 nM) [%]	cell viability (Vero E6 [5]; 100 nM) [%]	cell viability (Vero E6 [5]; 1000 nM) [%]	cell viability (Vero E6 [5]; 10000 nM) [%]	relative viability EC50 (Caco-2 [6]) [µM]	relative viability EC50 (Calu-3 [7]) [µM]	relative viability EC50 (HepG2 [8]) [µM]	relative viability EC50 (U2OS [9]) [µM]	relative viability EC50 (Vero E6 [10]) [µM]	drug sensitivity score (Caco-2 [11])	drug sensitivity score (Calu-3 [12])	drug sensitivity score (HepG2 [13])	drug sensitivity score (U2OS [14])	drug sensitivity score (Vero E6 [15])
N#Cc1cc(F)cc(-c2nc(-c3ccc(F)cn3)no2)c1 [AZD9272]	96.7	105	101	111	94.8	109	92.1	97.7	90.4	97.5	94.3	99.5	95.5	107	96.2	94.9	99	96.7	104	103	96.7	95.2	95.8	89.5	108	> 10	> 10	> 10	> 10	> 10	0	0	0	0	0
C=CC[C@]1(O)CC[C@H]2[C@@H]3CCC4=CCCC[C@@H]4[C@H]3CC[C@@]21C [allylestrenol]	107	102	112	102	88.8	98	108	116	104	106	105	104	108	105	98.3	94.6	98.1	94.8	99.4	99.5	102	91.5	106	103	97.7	> 10	> 10	> 10	> 10	> 10	0	0	0	0	0
Cc1nnc(C(C)C)n1C1C[C@H]2CC[C@@H](C1)N2CC[C@H](NC(=O)C1CCC(F)(F)CC1)c1ccccc1 (stereo in doubt) [maraviroc]	101	93.8	99.5	97.9	108	107	89.8	101	108	114	114	97.3	94.4	86.5	101	99.4	95.1	100	99.7	106	97.4	97.8	97.1	92.3	104	> 10	> 10	> 10	> 10	> 10	0	0	0	0	0
CCOC(=O)c1c(CSc2ccccc2)n(C)c2cc(Br)c(O)c(CN(C)C)c12 [arbidol]	94.9	88.1	94.4	96.7	88.2	94.5	96.7	96	96.8	81.6	96	104	108	104	97.2	98.3	92.8	96.8	92.4	93.8	92.9	96.6	92	104	101	> 10	> 10	> 10	> 10	> 10	0	0.9	0	0	0
CC1(C)O[C@@H]2C[C@H]3[C@@H]4CCC5=CC(=O)CC[C@]5(C)[C@@]4(F)[C@@H](O)C[C@]3(C)[C@]2(C(=O)CCl)O1 [halcinonide]	106	99.4	106	99	104	106	98.3	96.6	100	102	104	98	97.7	95.8	96	102	103	96.7	89.6	97.6	101	103	97.4	98.4	98.1	> 10	> 10	> 10	> 10	> 10	0	0	0	0.1	0
O=C(Oc1ccc(Br)cc1)N1CCN2CCC1CC2	101	105	94.2	98	102	97.5	101	101	100	95.7	97.7	101	97	103	108	99	102	104	99	98.4	94.2	101	93.5	95.5	104	> 10	> 10	> 10	> 10	> 10	0	0	0	0	0
O=[N+]([O-])c1nccn1CC(O)CN1CCCCC1 (stereo not given) [pimonidazole]	94.1	86.5	100	87.4	102	93.6	93.2	99.9	97	107	95.8	111	94.9	95.4	108	94	96.4	102	95.3	106	99.1	98	94.7	108	106	> 10	> 10	> 10	> 10	> 10	0	0	0	0	0

— the supplement of paper PMC13380429
